The values that follow come from patent publication US20200399242A1, “NOVEL COMPOUNDS” (INFLAZOME LIMITED, priority 2018, published 2020).

Counter-ions that a name gives are not always drawn.

For the test, the target named is T1, NLRP3 (Homo sapiens, UniProt Q96P20).
T1 construct: Seed THP-1 cells (25,000 cells/well) containing 1.0 μg/ml LPS in 40 μl of RPMI medium; host or cells: THP-1 cells
T1 sequence (Q96P20 whole entry): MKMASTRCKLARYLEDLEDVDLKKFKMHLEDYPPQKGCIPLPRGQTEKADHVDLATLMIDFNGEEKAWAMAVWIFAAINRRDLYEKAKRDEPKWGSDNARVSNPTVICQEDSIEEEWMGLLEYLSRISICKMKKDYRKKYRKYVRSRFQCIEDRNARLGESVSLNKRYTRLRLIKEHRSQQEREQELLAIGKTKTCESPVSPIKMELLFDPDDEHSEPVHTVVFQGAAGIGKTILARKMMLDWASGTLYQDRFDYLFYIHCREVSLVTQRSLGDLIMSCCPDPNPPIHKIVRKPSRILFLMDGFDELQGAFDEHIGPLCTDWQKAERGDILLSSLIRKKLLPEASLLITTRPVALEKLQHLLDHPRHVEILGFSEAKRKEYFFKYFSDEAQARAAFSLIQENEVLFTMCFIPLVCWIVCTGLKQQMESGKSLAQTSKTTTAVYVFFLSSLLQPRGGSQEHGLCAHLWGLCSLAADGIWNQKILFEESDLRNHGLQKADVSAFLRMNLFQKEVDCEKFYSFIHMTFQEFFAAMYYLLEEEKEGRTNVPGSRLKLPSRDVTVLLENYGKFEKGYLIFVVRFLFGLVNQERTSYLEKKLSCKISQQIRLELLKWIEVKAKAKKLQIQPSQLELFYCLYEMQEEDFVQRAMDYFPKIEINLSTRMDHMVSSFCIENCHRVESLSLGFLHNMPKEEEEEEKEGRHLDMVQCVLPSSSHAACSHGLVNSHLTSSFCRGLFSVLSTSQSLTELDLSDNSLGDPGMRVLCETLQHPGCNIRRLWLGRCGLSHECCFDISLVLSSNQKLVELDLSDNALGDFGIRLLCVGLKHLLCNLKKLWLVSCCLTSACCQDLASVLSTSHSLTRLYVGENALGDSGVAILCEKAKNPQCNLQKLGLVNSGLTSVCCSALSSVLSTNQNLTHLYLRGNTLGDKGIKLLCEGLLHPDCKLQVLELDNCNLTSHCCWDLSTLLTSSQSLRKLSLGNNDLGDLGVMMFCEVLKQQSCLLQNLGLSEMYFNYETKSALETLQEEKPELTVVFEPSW
The test can be described thus: THP-1 cells pyroptosis assay (LPS-primed, nigericin-triggered, resazurin read-out). Format: cell-based. The conditions noted are these: 1 μg/ml LPS, compound 3 hrs, nigericin 5 μM 1 hr, resazurin viability. As to the method: THP-1 cells (ATCC #TIB-202) were grown in RPMI containing L-glutamine (Gibco #11835) supplemented with 1 mM sodium pyruvate (Sigma #S8636) and penicillin (100 units/ml)/streptomycin (0.1 mg/ml) (Sigma #P4333) in 10% Fetal Bovine Serum (FBS) (Sigma #F0804). The cells were routinely passaged and grown to confluency (˜10^6 cells/ml). On the day of the experiment, THP-1 cells were harvested and resuspended into RPMI medium (without FBS). The cells were then counted and viability (>90%) checked by Trypan blue (Sigma #T8154). Appropriate dilutions were made to give a concentration of 625,000 cells/ml. To this diluted cell solution was added LPS (Sigma #L4524) to give a 1 μg/ml Final Assay Concentration (FAC). 40 μl of the final preparation was aliquoted into each well of a 96-well plate. The plate thus prepared was used for compound screening. The following method step-by-step assay was followed for compound screening. • 1. Seed THP-1 cells (25,000 cells/well) containing 1.0 μg/ml LPS in 40 μl of RPMI medium (without FBS) in 96-well, black walled, clear bottom cell culture plates coated with poly-D-lysine (VWR #734-0317) • 2. Add 5 μl compound (8 points half-log dilution, with 10 μM top dose) or vehicle (DMSO 0.1% FAC) to the appropriate wells • 3. Incubate for 3 hrs at 37° C., 5% CO2 • 4. Add 5 μl nigericin (Sigma #N7143) (FAC 5 μM) to all wells • 5. Incubate for 1 hr at 37° C., 5% CO2 • 6. At the end of the incubation period, spin plates at 300×g for 3 mins and remove supernatant • 7. Then add 50 μl of resazurin (Sigma #R7017) (FAC 100 μM resazurin in RPMI medium without FBS) and incubate plates for a further 1-2 hrs at 37° C. and 5% CO2 • 8. Plates were read in an Envision reader at Ex 560 nm and Em 590 nm • 9. IC50 data is fitted to a non-linear regression equation (log inhibitor vs response-variable slope 4-parameters) The results of the pyroptosis assay are summarised in Table 1 below as THP IC50.
For the compound `COc1cc(-c2cc(F)cc(C(C)C)c2CC(=O)NS(=O)(=O)c2ccc(=O)n(C)c2)ccn1` [Example 1, 2-(4-Fluoro-2-isopropyl-6-(2-methoxypyridin-4-yl)phenyl)-N-((1-methyl-6-oxo-,6-dihydropyridin-3-yl)sulfonyl)acetamide, potassium salt], the half-inhibitory concentration (IC50) was 5 to 10 µM.

For `COc1cc(-c2cc(F)cc(C(C)C)c2CC(=O)NS(=O)(=O)c2ccc(=O)n(C(C)C)c2)ccn1` [Example 2, 2-(4-Fluoro-2-isopropyl-6-(2-methoxypyridin-4-yl)phenyl)-N-((1-isopropyl-6-oxo-1,6-dihydropyridin-3-yl)sulfonyl)acetamide, potassium salt], the IC50 lay in the range of 1 to 5 µM.

As for `COc1cc(-c2cc(F)cc(C(C)C)c2CC(=O)NS(=O)(=O)c2cn(C)c(=O)n(C)c2=O)ccn1` [Example 3, N-((1,3-Dimethyl-2,4-dioxo-1,2,3,4-tetrahydropyrimidin-5-yl)sulfonyl)-2-(4-fluoro-2-isopropyl-6-(2-methoxypyridin-4-yl)phenyl) acetamide], the 50% inhibitory concentration (IC50) was at most 1 µM.

A word on the IC50: it is the concentration that inhibits the measured activity by half.
